Experimental data reported in ChEMBL document CHEMBL4219095, “Synthesis and biological evaluation of 4,6-diaryl-2-pyrimidinamine derivatives as anti-breast cancer agents” (Bioorg Med Chem Lett, 2018).
Calls of active or inactive are those of the source. The rule behind the calls is not given here.

Columns and labels:
Ishikawa [1] = experiment: Antiproliferative activity against human Ishikawa cells after 48 hrs by MTT assay; format: functional, cell-based
MCF7 [2] = experiment: Antiproliferative activity against human MCF7 cells after 48 hrs by MTT assay; format: functional, cell-based; details: MCF7, 48 h
HUVEC = experiment: Antiproliferative activity against HUVEC after 48 hrs by MTT assay; format: functional, cell-based; details: Homo sapiens
[3] = target: Vascular endothelial growth factor receptor 2 (Homo sapiens) (UniProt P35968); details: HUVEC, at 1 µM
Sequence of Vascular endothelial growth factor receptor 2 (Homo sapiens) (P35968 whole entry): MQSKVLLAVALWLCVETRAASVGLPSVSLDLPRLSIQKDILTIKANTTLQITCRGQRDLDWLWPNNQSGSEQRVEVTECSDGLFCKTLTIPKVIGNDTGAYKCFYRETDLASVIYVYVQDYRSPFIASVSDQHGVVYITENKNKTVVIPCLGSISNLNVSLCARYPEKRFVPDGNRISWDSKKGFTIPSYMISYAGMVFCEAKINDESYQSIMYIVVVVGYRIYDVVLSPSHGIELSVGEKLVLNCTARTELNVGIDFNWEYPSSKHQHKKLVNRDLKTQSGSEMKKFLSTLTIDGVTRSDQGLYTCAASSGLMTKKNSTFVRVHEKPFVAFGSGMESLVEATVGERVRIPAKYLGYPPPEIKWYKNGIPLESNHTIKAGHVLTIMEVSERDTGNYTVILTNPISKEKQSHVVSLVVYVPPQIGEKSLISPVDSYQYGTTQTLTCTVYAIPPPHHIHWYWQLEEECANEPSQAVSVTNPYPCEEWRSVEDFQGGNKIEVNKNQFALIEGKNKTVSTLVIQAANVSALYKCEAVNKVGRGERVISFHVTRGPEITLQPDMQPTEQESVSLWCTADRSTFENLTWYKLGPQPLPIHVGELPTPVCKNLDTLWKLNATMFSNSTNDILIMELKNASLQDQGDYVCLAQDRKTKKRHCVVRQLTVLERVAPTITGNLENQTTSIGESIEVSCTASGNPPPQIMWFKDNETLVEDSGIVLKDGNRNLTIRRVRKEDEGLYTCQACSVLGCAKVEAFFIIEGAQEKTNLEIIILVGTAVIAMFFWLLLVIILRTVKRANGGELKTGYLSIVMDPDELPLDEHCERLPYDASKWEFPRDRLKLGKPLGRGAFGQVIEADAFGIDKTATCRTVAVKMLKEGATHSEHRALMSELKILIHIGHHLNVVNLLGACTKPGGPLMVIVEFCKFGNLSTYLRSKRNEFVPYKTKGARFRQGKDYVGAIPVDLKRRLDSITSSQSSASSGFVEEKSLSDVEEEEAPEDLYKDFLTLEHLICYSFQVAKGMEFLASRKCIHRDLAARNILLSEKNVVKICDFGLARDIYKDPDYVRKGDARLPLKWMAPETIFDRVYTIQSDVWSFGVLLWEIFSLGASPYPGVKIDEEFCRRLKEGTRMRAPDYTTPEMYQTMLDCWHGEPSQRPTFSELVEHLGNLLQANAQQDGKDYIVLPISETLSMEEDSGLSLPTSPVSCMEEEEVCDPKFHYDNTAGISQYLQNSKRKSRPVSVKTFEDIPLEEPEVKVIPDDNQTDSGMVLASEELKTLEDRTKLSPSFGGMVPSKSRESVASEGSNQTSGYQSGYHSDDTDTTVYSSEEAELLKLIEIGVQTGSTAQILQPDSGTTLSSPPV
Description: Inhibition of VEGFR2 phosphorylation in HUVEC at 1 uM after 24 hrs by Western blot analysis

Chorioallantoic membrane = experiment: Antiangiogenic activity in chicken fertilized egg chorioallantoic membrane at 1 to 20 uM measured after 72 hrs; format: functional, tissue-based; details: Gallus gallus
MCF7 [4] = experiment: Effect on PgR mRNA expression in human MCF7 cells at 1 uM by SYBR Green dye based RT-PCR analysis; format: functional, cell-based
Ishikawa [5] = experiment: Stimulation of cell proliferation in human Ishikawa cells at 10 uM after 48 hrs by MTT assay; format: ADME, cell-based
Ishikawa [6] = experiment: Antiproliferative activity against human Ishikawa cells at >40 uM after 48 hrs by MTT assay; format: functional, cell-based

Structure (SMILES)	IC50 (Ishikawa [1])	IC50 (MCF7 [2])	IC50 (HUVEC)	inhibition [3]	Activity (Chorioallantoic membrane)	Activity (MCF7 [4])	Activity (Ishikawa [5])	Activity (Ishikawa [6])
COc1ccc(-c2cc(-c3ccc(OC)cc3)nc(Nc3ccc(OCCN4CCN(C)CC4)cc3)n2)cc1	5.7 µM	4.2 µM	3 µM					
CCN(CC)CCOc1ccc(Nc2nc(-c3ccc(O)cc3)cc(-c3ccc(OC)cc3)n2)cc1	6.4 µM	5.6 µM	3.5 µM					
CN(C)CCOc1ccc(Nc2nc(-c3ccc(O)cc3)cc(-c3ccc(O)cc3)n2)cc1	1.6 µM	19.4 µM	4.7 µM					
Oc1ccc(-c2cc(-c3ccc(O)cc3)nc(Nc3ccc(OCCN4CCCCC4)cc3)n2)cc1	5 µM	6.1 µM	4.6 µM					
CN1CCN(CC(=O)Nc2ccc(Nc3nc(-c4ccc(O)cc4)cc(-c4ccc(O)cc4)n3)cc2)CC1	4.9 µM	5.2 µM	6.8 µM					
COc1ccc(-c2cc(-c3ccc(O)cc3)nc(Nc3ccc(OCCN4CCCCC4)cc3)n2)cc1	4.8 µM	17.1 µM	4.5 µM					
COc1ccc(-c2cc(-c3ccc(OC)cc3)nc(Nc3ccc(NC(=O)CN4CCN(C)CC4)cc3)n2)cc1	5.7 µM	1.8 µM	5 µM					
CCN(CC)CCOc1ccc(Nc2nc(-c3ccc(O)cc3)cc(-c3ccc(O)cc3)n2)cc1	4.8 µM	5.1 µM	2.5 µM					
COc1ccc(-c2cc(-c3ccc(O)cc3)nc(Nc3ccc(NC(=O)CN4CCCC4)cc3)n2)cc1	5.5 µM	4.5 µM	2.3 µM					
CN1CCN(CCOc2ccc(Nc3nc(-c4ccc(O)cc4)cc(-c4ccc(O)cc4)n3)cc2)CC1	5.4 µM	5.2 µM	2.5 µM					
COc1ccc(-c2cc(-c3ccc(O)cc3)nc(Nc3ccc(OCCN4CCCC4)cc3)n2)cc1	5.9 µM	4.6 µM	3.1 µM					
COc1ccc(-c2cc(-c3ccc(OC)cc3)nc(Nc3ccc(NC(=O)CN4CCOCC4)cc3)n2)cc1		33.1 µM						
COc1ccc(-c2cc(-c3ccc(O)cc3)nc(Nc3ccc(OCCN4CCN(C)CC4)cc3)n2)cc1	5.3 µM	4.8 µM	2.4 µM					
O=C(CN1CCCCC1)Nc1ccc(Nc2nc(-c3ccc(O)cc3)cc(-c3ccc(O)cc3)n2)cc1	13.5 µM	26.4 µM	7.4 µM					
COc1ccc(-c2cc(-c3ccc(OC)cc3)nc(Nc3ccc(NC(=O)CN4CCCC4)cc3)n2)cc1	1.9 µM	2.2 µM	2.5 µM	Active	Active	inactive		
CN(C)CC(=O)Nc1ccc(Nc2nc(-c3ccc(O)cc3)cc(-c3ccc(O)cc3)n2)cc1	8 µM	39.5 µM	60.6 µM					
COc1ccc(-c2cc(-c3ccc(O)cc3)nc(Nc3ccc(NC(=O)CN4CCCCC4)cc3)n2)cc1	1.4 µM	> 100 µM	10.6 µM					

Structure (SMILES)	IC50 (Ishikawa [1])	IC50 (MCF7 [2])	IC50 (HUVEC)	inhibition [3]	Activity (Chorioallantoic membrane)	Activity (MCF7 [4])	Activity (Ishikawa [5])	Activity (Ishikawa [6])
COc1ccc(-c2cc(-c3ccc(O)cc3)nc(Nc3ccc(NC(=O)CN4CCOCC4)cc3)n2)cc1	42.2 µM	19.2 µM	10.2 µM					
COc1ccc(-c2cc(-c3ccc(O)cc3)nc(Nc3ccc(OCCN(C)C)cc3)n2)cc1	5.2 µM	3.6 µM	4.7 µM					
O=C(CN1CCCC1)Nc1ccc(Nc2nc(-c3ccc(O)cc3)cc(-c3ccc(O)cc3)n2)cc1	8.3 µM	19.7 µM	7 µM					
CCN(CC)CC(=O)Nc1ccc(Nc2nc(-c3ccc(O)cc3)cc(-c3ccc(O)cc3)n2)cc1	17.3 µM	27 µM	19 µM					
CC/C(=C(\c1ccccc1)c1ccc(OCCN(C)C)cc1)c1ccccc1 [TAMOXIFEN]						inactive	Toxic	Active
COc1ccc(-c2cc(-c3ccc(O)cc3)nc(Nc3ccc(NC(=O)CN4CCN(C)CC4)cc3)n2)cc1	4.2 µM	4.1 µM	4.7 µM					
Oc1ccc(-c2cc(-c3ccc(O)cc3)nc(Nc3ccc(OCCN4CCCC4)cc3)n2)cc1	4.5 µM	57 µM	4.7 µM					
Oc1ccc(-c2cc(-c3ccc(O)cc3)nc(Nc3ccc(OCCN4CCOCC4)cc3)n2)cc1			74.9 µM					
COc1ccc(-c2cc(-c3ccc(OC)cc3)nc(Nc3ccc(NC(=O)CN(C)C)cc3)n2)cc1	3.6 µM	2.5 µM	2.8 µM					
CCN(CC)CC(=O)Nc1ccc(Nc2nc(-c3ccc(O)cc3)cc(-c3ccc(OC)cc3)n2)cc1	16.4 µM	49 µM	22 µM					
CCN(CC)CCOc1ccc(Nc2nc(-c3ccc(OC)cc3)cc(-c3ccc(OC)cc3)n2)cc1	4.3 µM	5 µM	2.2 µM					
CCN(CC)CCNC(=O)c1c(C)[nH]c(/C=C2\C(=O)Nc3ccc(F)cc32)c1C [SUNITINIB]			3 µM		Active			
COc1ccc(-c2cc(-c3ccc(OC)cc3)nc(Nc3ccc(OCCN4CCCCC4)cc3)n2)cc1	1.9 µM	32.4 µM	5.4 µM					
COc1ccc(-c2cc(-c3ccc(OC)cc3)nc(Nc3ccc(OCCN4CCCC4)cc3)n2)cc1	3.9 µM	2.6 µM	2.1 µM					
O=C(CN1CCOCC1)Nc1ccc(Nc2nc(-c3ccc(O)cc3)cc(-c3ccc(O)cc3)n2)cc1	60.4 µM	15.6 µM	47 µM					
COc1ccc(-c2cc(-c3ccc(O)cc3)nc(Nc3ccc(NC(=O)CN(C)C)cc3)n2)cc1	6.3 µM	3.4 µM	3.8 µM					
COc1ccc(-c2cc(-c3ccc(OC)cc3)nc(Nc3ccc(OCCN(C)C)cc3)n2)cc1	5.1 µM	3.6 µM	4.6 µM					
